# In ChEMBL document CHEMBL1159123, “Molecular design of N-linked tetravalent glycosides bearing N-acetylglucosamine, N,N'-diacetylchitobiose and N-acetyllactosamine: Analysis of cross-linking activities with WGA and ECA lectins” (Bioorg Med Chem, 2010):
# The source made the active and inactive calls. No cut-off for these calls is given here.
# What was measured:
# [1] = Inhibition of wheat-germ agglutinin-mediated hemagglutinination of rabbit erythrocytes; design: species or system Triticum aestivum
# Erythrina variegata [2] = assay: Binding affinity to Erythrina variegata agglutinin assessed as precipitation by UV detection based precipitation analysis
# Triticum aestivum [3] = assay: Binding affinity to wheat-germ agglutinin assessed as precipiting bands by double diffusion test
# Triticum aestivum [4] = assay: Binding affinity to wheat-germ agglutinin assessed as increase in response units by surface plasmon resonance
# [5] = Inhibition of Erythrina variegata agglutinin-mediated hemagglutinination of rabbit erythrocytes
# Triticum aestivum [6] = assay: Binding affinity to wheat-germ agglutinin assessed as precipitation by UV detection based precipitation analysis
# Erythrina variegata [7] = assay: Binding affinity to Erythrina variegata agglutinin assessed as precipiting bands by double diffusion test
SMILES,IC50 [1] [µM],Activity (Erythrina variegata [2]),Activity (Triticum aestivum [3]),Activity (Triticum aestivum [4]),IC50 [5] [µM],Activity (Triticum aestivum [6]),Activity (Erythrina variegata [7])
CC(=O)N[C@@H]1[C@@H](O)[C@H](O[C@@H]2O[C@H](CO)[C@@H](O)[C@H](O)[C@H]2NC(C)=O)[C@@H](CO)O[C@H]1NC(=O)CN(CCOCCOCCN(CC(=O)N[C@@H]1O[C@H](CO)[C@@H](O[C@@H]2O[C@H](CO)[C@@H](O)[C@H](O)[C@H]2NC(C)=O)[C@H](O)[C@H]1NC(C)=O)CC(=O)N[C@@H]1O[C@H](CO)[C@@H](O[C@@H]2O[C@H](CO)[C@@H](O)[C@H](O)[C@H]2NC(C)=O)[C@H](O)[C@H]1NC(C)=O)CC(=O)N[C@@H]1O[C@H](CO)[C@@H](O[C@@H]2O[C@H](CO)[C@@H](O)[C@H](O)[C@H]2NC(C)=O)[C@H](O)[C@H]1NC(C)=O,5.86,inactive,Active,Dose-dependent effect,–,–,–
CC(=O)N[C@@H]1[C@@H](O)[C@H](O[C@@H]2O[C@H](CO)[C@@H](O)[C@H](O)[C@H]2NC(C)=O)[C@@H](CO)O[C@H]1NC(=O)CCCCCNC(=O)CN(CCOCCOCCN(CC(=O)NCCCCCC(=O)N[C@@H]1O[C@H](CO)[C@@H](O[C@@H]2O[C@H](CO)[C@@H](O)[C@H](O)[C@H]2NC(C)=O)[C@H](O)[C@H]1NC(C)=O)CC(=O)NCCCCCC(=O)N[C@@H]1O[C@H](CO)[C@@H](O[C@@H]2O[C@H](CO)[C@@H](O)[C@H](O)[C@H]2NC(C)=O)[C@H](O)[C@H]1NC(C)=O)CC(=O)NCCCCCC(=O)N[C@@H]1O[C@H](CO)[C@@H](O[C@@H]2O[C@H](CO)[C@@H](O)[C@H](O)[C@H]2NC(C)=O)[C@H](O)[C@H]1NC(C)=O,0.18,inactive,Active,Dose-dependent effect,–,–,–
CC(=O)N[C@@H]1[C@@H](O)[C@H](O)[C@@H](CO)O[C@H]1NC(=O)CCCCCNC(=O)CN(CCOCCOCCN(CC(=O)NCCCCCC(=O)N[C@@H]1O[C@H](CO)[C@@H](O)[C@H](O)[C@H]1NC(C)=O)CC(=O)NCCCCCC(=O)N[C@@H]1O[C@H](CO)[C@@H](O)[C@H](O)[C@H]1NC(C)=O)CC(=O)NCCCCCC(=O)N[C@@H]1O[C@H](CO)[C@@H](O)[C@H](O)[C@H]1NC(C)=O,46.9,inactive,Active,Dose-dependent effect,–,–,–
CC(=O)N[C@@H]1[C@@H](O)[C@H](O[C@@H]2O[C@H](CO)[C@H](O)[C@H](O)[C@H]2O)[C@@H](CO)O[C@H]1NC(=O)CN(CCOCCOCCN(CC(=O)N[C@@H]1O[C@H](CO)[C@@H](O[C@@H]2O[C@H](CO)[C@H](O)[C@H](O)[C@H]2O)[C@H](O)[C@H]1NC(C)=O)CC(=O)N[C@@H]1O[C@H](CO)[C@@H](O[C@@H]2O[C@H](CO)[C@H](O)[C@H](O)[C@H]2O)[C@H](O)[C@H]1NC(C)=O)CC(=O)N[C@@H]1O[C@H](CO)[C@@H](O[C@@H]2O[C@H](CO)[C@H](O)[C@H](O)[C@H]2O)[C@H](O)[C@H]1NC(C)=O,> 4000,Active,inactive,–,1.2,inactive,Active
CC(=O)N[C@@H]1[C@@H](O)[C@H](O[C@@H]2O[C@H](CO)[C@H](O)[C@H](O)[C@H]2O)[C@@H](CO)O[C@H]1NC(=O)CCCCCC(=O)N[C@@H]1O[C@H](CO)[C@@H](O[C@@H]2O[C@H](CO)[C@H](O)[C@H](O)[C@H]2O)[C@H](O)[C@H]1NC(C)=O,–,–,–,–,47,–,–
CC(=O)N[C@@H]1[C@@H](O)[C@H](O[C@@H]2O[C@H](CO)[C@H](O)[C@H](O)[C@H]2O)[C@@H](CO)O[C@H]1NC(=O)CCCCCNC(=O)CN(CCOCCOCCN(CC(=O)NCCCCCC(=O)N[C@@H]1O[C@H](CO)[C@@H](O[C@@H]2O[C@H](CO)[C@H](O)[C@H](O)[C@H]2O)[C@H](O)[C@H]1NC(C)=O)CC(=O)NCCCCCC(=O)N[C@@H]1O[C@H](CO)[C@@H](O[C@@H]2O[C@H](CO)[C@H](O)[C@H](O)[C@H]2O)[C@H](O)[C@H]1NC(C)=O)CC(=O)NCCCCCC(=O)N[C@@H]1O[C@H](CO)[C@@H](O[C@@H]2O[C@H](CO)[C@H](O)[C@H](O)[C@H]2O)[C@H](O)[C@H]1NC(C)=O,–,Active,inactive,–,5.9,inactive,Active

# The next lines start with the values.
IC50 [1] [µM],Activity (Erythrina variegata [2]),Activity (Triticum aestivum [3]),Activity (Triticum aestivum [4]),IC50 [5] [µM],Activity (Triticum aestivum [6]),Activity (Erythrina variegata [7]),SMILES
–,–,–,–,94,–,–,CC(=O)N[C@@H]1[C@@H](O)[C@H](O[C@@H]2O[C@H](CO)[C@H](O)[C@H](O)[C@H]2O)[C@@H](CO)O[C@H]1O
> 4000,inactive,inactive,Dose-dependent effect,–,–,–,CC(=O)N[C@@H]1[C@@H](O)[C@H](O)[C@@H](CO)O[C@H]1NC(=O)CN(CCOCCOCCN(CC(=O)N[C@@H]1O[C@H](CO)[C@@H](O)[C@H](O)[C@H]1NC(C)=O)CC(=O)N[C@@H]1O[C@H](CO)[C@@H](O)[C@H](O)[C@H]1NC(C)=O)CC(=O)N[C@@H]1O[C@H](CO)[C@@H](O)[C@H](O)[C@H]1NC(C)=O
750,–,–,–,–,–,–,CC(=O)N[C@H]1[C@H](O[C@H]2[C@H](O)[C@@H](NC(C)=O)C(O)O[C@@H]2CO)O[C@H](CO)[C@@H](O)[C@@H]1O (stereo not given in full)
